Measured values reported in patent US11178823B2, “Systems and methods for using light energy to facilitate penetration of substances in plants” (priority 2014, dated 2021).

Experiments:
[1] = Uptake and phloem movement of fluorescent test substances applied onto lased citrus leaves (fluorescent microscopy); type: in vivo
Description: To illustrate the effectiveness of the methods disclosed herein, a test substance was used to show the enhanced penetration through foliar application. Among test substances, phloem mobile compounds NBDG, a fluorescent analog of glucose (a natural sugar found in plants), and carboxyfluorescin-SE (a membrane permeable substance only fluorescent in live cells) were used in an experiment. Both substances were manually applied onto lased leaves (using a 13×39 dot indentation pattern 801) at a concentration of 5 mg/mL.
FIGS. 8A-8B were observed under fluorescent microscopy and FIG. 8B was taken 10 minutes after the application of 5 μL of NBDG.
Within 2 h, fluorescent NBDG was observed within the lateral veins of the lased leaves (shown in FIGS. 9A-9B) emerging from the application area. FIGS. 9A-9B are fluorescent micrographs of a portion of a lased citrus leaf. […] FIG. 9B is another image showing the NBDG in a minor veins 903 and main vein 905.
It should be appreciated that movement of the foliarly applied NBDG continued down the stem and towards the roots. […] FIGS. 11A-11B show bark sections of young trees. […] The distance between the lased leaves and bark segment 1103 was approximately 20 cm.

HLB bacteria = test: PCR analysis for presence of HLB in leaves of lased and antimicrobial-treated citrus trees; type: in vivo; conditions: 2 fluid ounces per tree, 0-29 = HLB detected, 30 and above = no HLB detected; for Presence of HLB using PCR analysis, Sample A: lased and treated leaves; for Presence of HLB using PCR analysis, Sample B: leaves at furthest point from lased leaves, not lased or treated
Procedure: The following experimental data is provided to exemplarily illustrate various aspects of the inventive subject matter presented herein. More specifically, the data illustrates the surprising uptake of antimicrobials to effectively treat a plant. Citrus trees were tested in three groups consisting of a control group (trees 1-6), an antimicrobial plus surfactant group (trees 7-12), and an antimicrobial only group (trees 13-18). The trees in each group were lased and, in some instances, treated with an antimicrobial, and analyzed two weeks later to determine the amount of HLB present in the tree using Polymerase Chain Reaction (“PCR”) analysis. It should be noted that all the trees in this experiment had HLB at the beginning of the experiment. The antimicrobial used was oxytetracycline (FireLine™) that includes a surfactant (Tactit) for the antimicrobial plus surfactant group, and oxytetracycline without a surfactant for the antimicrobial only group. The laser parameters included a jump speed of 2000 mm/s, marking speed 850 mm/s, and marking intensity: 70%, and a pulse frequency of 15000 Hz.
The control group (trees 1-6) was lased, but not treated with any antimicrobials and/or surfactants. With the exception of one tree (tree 7) that was only lased, the antimicrobial plus surfactant group was lased and treated with an antimicrobial that comprised a surfactant. With the exception of one tree (tree 13) that was only lased, the antimicrobial only group was lased and treated with only an antimicrobial (with no surfactant). The trees in each group were lased on only one side of the tree (the side comprising the “A” samples). If an antimicrobial (with or without surfactant) was applied, such antimicrobial was applied to the side of the tree that was lased. The antimicrobials were prepared at 200 ppm, 500 ppm, 1000 ppm, 1500 ppm, and 2000 ppm in a 1 gallon volume. Only 2 fluid ounces per tree (10 fluid ounces per group of trees) was used of each concentration for this experiment.
After two weeks, leaves that were lased and, in some instances, treated with an antimicrobial were sampled and analyzed. Additionally, leaves located at the furthest point from the lased leaves (the side comprising the “B” samples), which were not directly lased and/or treated, were sampled and analyzed. Leaves were grinded and prepared for PCR analysis for detecting the presence of HLB. PCR determines if there is live HLB DNA. PCR analysis amplifies and copies small segments of DNA. It then yields enough sample DNA to run the analysis. With this experiment there are six trees per treatment group (control group, antimicrobial plus surfactant group, and antimicrobial only group). Each tree falls under two ranges for determining HLB content, values 29 and lower are considered HLB positive (greening) and values 30 and over are trees considered HLB negative (non-greening). If the analysis takes over 30 PCR cycles then it cannot find any target HLB DNA. If the analysis runs against the maximum of 40 PCR cycles then it becomes indeterminate and it could not find one copy of HLB. It should be noted that there could be numbers over “30” but still be no presence of HLB because there are only artifacts of dead HLB bacteria DNA in numbers over “30”.

[2] = 200 ppm, without surfactant, tree 14, two weeks
[3] = 500 ppm, without surfactant, tree 15, two weeks
[4] = 1000 ppm, without surfactant, tree 16, two weeks
[5] = 2000 ppm, with surfactant (Tactit), tree 12, two weeks

O=[N+]([O-])c1ccc(N[C@H]2C(O)O[C@H](CO)[C@@H](O)[C@@H]2O)c2nonc12 (stereo partly shown) [NBDG]
Uptake into un-lased control leaf (fluorescence) ([1]; applied to the surface of un-lased leaves): no fluorescence | Time until fluorescence observed in the phloem of bark tissue ([1]; bark approximately 20 cm from the treated lased leaf, young trees): ≤ 8 h | Time until fluorescence observed within the lateral veins of the lased leaves ([1]; lased citrus leaf, 5 mg/mL, emerging from the application area): ≤ 2 h | Movement in the leaf four hours after application ([1]; lased citrus leaf, 5 mg/mL, four hours after application): reached and passed the base of the petiole | Uptake into lased leaf (fluorescence) ([1]; lased citrus leaf, 13×39 dot indentation pattern, 5 mg/mL, 5 μL, 10 minutes after application): spread of fluorescence within the lased area

CN(C)[C@@H]1C(O)=C(C(N)=O)C(=O)[C@@]2(O)C(O)=C3C(=O)c4c(O)cccc4[C@@](C)(O)[C@H]3[C@H](O)[C@@H]12 [oxytetracycline]
Presence of HLB using PCR analysis, Sample A (HLB bacteria; 200 ppm, with surfactant (Tactit), tree 8, two weeks after treatment): 30.6 | Presence of HLB using PCR analysis, Sample B (HLB bacteria; 200 ppm, with surfactant (Tactit), tree 8, two weeks): 33.5 | Presence of HLB using PCR analysis, Sample A (HLB bacteria; [2]): 27.0 | Presence of HLB using PCR analysis, Sample B (HLB bacteria; [2]): 26.1 | Presence of HLB using PCR analysis, Sample A (HLB bacteria; 500 ppm, with surfactant (Tactit), tree 9, two weeks): 35.4 | Presence of HLB using PCR analysis, Sample A (HLB bacteria; [3]): 34.7 | Presence of HLB using PCR analysis, Sample B (HLB bacteria; [3]): 26.6 | Presence of HLB using PCR analysis, Sample A (HLB bacteria; [4]): 37.8 | Presence of HLB using PCR analysis, Sample B (HLB bacteria; [4]): 28.7 | Presence of HLB using PCR analysis, Sample B (HLB bacteria; 1500 ppm, with surfactant (Tactit), tree 11, two weeks): 36.8 | Presence of HLB using PCR analysis, Sample B (HLB bacteria; 1500 ppm, without surfactant, tree 17, two weeks): 26.2 | Presence of HLB using PCR analysis, Sample A (HLB bacteria; [5]): 37.6 | Presence of HLB using PCR analysis, Sample B (HLB bacteria; [5]): 36.1 | Presence of HLB using PCR analysis, Sample B (HLB bacteria; 2000 ppm, without surfactant, tree 18, two weeks): 27.6
